This is an account of results in patent US6445486B1, “Electroactive materials and beneficial agents having a solubilizing moiety” (Gentex Corporation, priority 1999, dated 2002).

Values after ≈ are worked out from the molar mass of the structure shown.

One data set in a line: physchem. Conditions: organic solvent or mixture, thermodynamic from solid.
What is called solubility is how much of the substance goes into solution per volume. With `C[N+]1(CCN2c3ccccc3N(c3ccccc3)c3ccccc32)CCCCC1.F[P-](F)(F)(F)(F)F` [1-Methyl-1-[2-(10-phenyl-10H-phenazin-5-yl)-ethyl]-piperidinium hexafluorophosphate], the solubility came out at 500 mM.

A further data set in a line: Solubility at saturation in the solvent of interest, calculated from UV-VIS spectra of saturated solutions. Conditions: propylene carbonate, organic solvent or mixture, thermodynamic from solid.
`CC[N+](CC)(CC)CCCCn1c(=NN=c2sc3ccccc3n2C)sc2ccccc21.F[B-](F)(F)F` [triethyl-(4-{2-[(3-methyl-3H-benzothiazol-2-ylidene)-hydrazono]-benzothiazol-3-yl}-butyl)-ammonium tetrafluoroborate]: the solubility was 47 mM.

`CCn1c(=NN=c2sc3ccccc3n2CC)sc2ccccc21` [N,N′-Bis-(3-ethyl-3H-benzothiazol-2-ylidene)-hydrazine, reference compound]: the solubility was 12 mM (≈ 4250 µg/mL).

As for `CN1c2ccccc2N(C)c2ccccc21` [5,10-Dihydro-5,10-dimethylphenazine, reference compound], the solubility is 110 mM (≈ 23100 µg/mL).

For `Cc1ccc2c(c1)N(C)c1ccc(C)cc1N2C` [2,5,7,10-Tetramethyl-5,10-dihydrophenazine, reference compound], the solubility was 55 mM (≈ 13100 µg/mL).

As to `c1ccc(N2c3ccccc3N(CCN3CCCCC3)c3ccccc32)cc1` [5-Phenyl-10-(2-piperidin-1-yl-ethyl)-5,10-dihydrophenazine, reference compound], the solubility is 5 mM (≈ 1850 µg/mL).

The data set is the same for the next values; noted with them: saturated solution in propylene carbonate; ambient temperature.
For `CC[N+](CC)(CC)CCN1c2ccccc2N(CC[N+](CC)(CC)CC)c2ccccc21.F[B-](F)(F)F.F[B-](F)(F)F` [5,10-Bis-2-(triethylammonium)ethylphenazine [BF4]2], the “Solubility in propylene carbonate” value is 200 mM.

With `F[B-](F)(F)F.F[B-](F)(F)F.N#Cc1ccc(-[n+]2ccc(-c3cc[n+](CCC[c-]4cccc4)cc3)cc2)cc1.[Fe+2].c1cc[cH-]c1` [Ferrocenepropyl-p-cyanophenylviologen tetrafluoroborate], the “Solubility in propylene carbonate” value is recorded as 276.0 mM.

“1-Triethylammonium-6-(tetra-t-butylferrocenyl)hexane BF4”: the “Solubility in propylene carbonate” value was 514.4 mM.

Take `CC[N+](CC)(CC)CCN1c2ccc(C)cc2N(CC[N+](CC)(CC)CC)c2ccc(C)cc21.F[B-](F)(F)F.F[B-](F)(F)F` [2,7-Dimethyl-5,10-bis-2-(triethylammonium)ethylphenazine [BF4]2]: the “Solubility in propylene carbonate” value was 250 mM.
